Paper PMC6017290, “Oleanolic Acid-amino Acids Derivatives: Design, Synthesis, and Hepatoprotective Evaluation In Vitro and In Vivo” (Molecules : A Journal of Synthetic Chemistry and Natural …, 2018)

Legend:
L02 = assay: MTT cell viability assay, L02 normal liver cell; type: cell-based; settings: Homo sapiens, 72 h, mean ± SD of three experiments
Protocol: (§1) Cell viability was evaluated using an MTT assay. HSCs, HepG2, Bel-7402, and L02 cells were seeded, respectively, in 96-well plates at a density of 3 × 10^3 cells per-well and stabilized at 37 °C for 24 h in a humidified atmosphere with 5% CO2. The growing cells were exposed to various concentrations of the tested drugs and incubated for 72 h (37 °C, 5% CO2). The MTT solution (20 μL, 5 mg/mL) was added to each well and incubated for 4 h. After removing the media, formazan crystals were dissolved with DMSO (150 μL). After shaking for 10 min, the absorbance was quantified at 490 nm. Wells containing no drugs were used as blanks. The IC50 values were defined as the concentration of compounds that produced a 50% reduction of surviving cells and were calculated using the Logit-method. The inhibitory rate was calculated in the following Equation (1): Inhibition rate (%) = (1 − OD Sample group/OD Control group) × 100%(1)

HepG2 = assay: MTT cell viability assay, HepG2; type: cell-based; settings: Homo sapiens, 72 h, mean ± SD of three experiments
Protocol: as §1

HSCs [1] = assay: MTT cell viability assay, HSCs; type: cell-based; settings: 72 h, mean ± SD of three experiments
Protocol: as §1

Bel-7402 = assay: MTT cell viability assay, Bel-7402; type: cell-based; settings: Homo sapiens, 72 h, mean ± SD of three experiments
Protocol: as §1

[2] = test system: CCl4 acute liver injury mice model; assay: CCl4 acute liver injury mice model (HE staining, serum ALT and AST); type: in vivo; settings: 20 mg/kg intragastric, 8 days, CCl4 i.p., 16 h after injury; for activity of ALT in serum / activity of AST in serum: vs model group
Protocol: The twelve mice were randomly divided into the control group, model group, administration of OA group, and administration of 3g group. In the administration of OA and 3g group, the mice were fed with OA and 3g suspension with 0.5% CMC-Na at a dose of 20 mg/kg body weight. The control group and model group were intragastrically administered with equal volume of 0.5% CMC-Na; during administration for 8 days, the general activity, fur, and feces of mice were observed daily. After administration for 1 h on the 8th day, the other groups were intraperitoneally injected with 10mL/kg 0.2% of the carbon tetrachloride (CCl4) olive oil solution, while the control group was intraperitoneally injected with olive oil solution. After 16 h of injury, the serum was prepared by centrifugation at 3000 rpm by orbital blood. The ability of ALT and AST was measured according to the instructions of the assay kit. The liver tissues of each group were taken out and the morphological differences were observed. The large lobe of liver was taken for pathological examination with HE staining under an optical microscope (×100).

HSCs [3] = assay: Annexin V-FITC/PI staining apoptosis assay (flow cytometry); type: cell-based; settings: 72 h, control cells 15.1%
Protocol: HSCs cells in logarithmic growth phase were cultured in 6-well plates at a density of 3 × 10^4 cells/mL for 24 h at 37 °C in a humidified atmosphere with 5% CO2. HSCs cells were treated with 3g at various concentrations (0, 1.5, 3.0, and 6.0 µM) for 72 h. Then, cells were collected, washed with annexin-binding buffer, and stained with annexin V-FITC and PI for 15 min in the dark. After that, the samples were analyzed by flow cytometry (BD FACSCalibur, San Jose, CA, USA).

HSCs [4] = assay: Mitochondrial membrane potential assay (Rh123, flow cytometry); type: cell-based; settings: 1.5, 3.0, 6.0 µM, 72 h
Protocol: HSCs cells in logarithmic growth phase were seeded in 6-well culture plate at a density of 3 × 10^4 cells/mL for 24 h at 37 °C in incubator with 5% CO2. After treatment with different concentrations of 3g (0, 1.5, 3.0, and 6.0 μM) for 72 h, cells were collected and washed twice in cold PBS, then resuspended in 1 mL cell culture medium with Rh123 (10 μg/mL) and incubated for 30 min at 37 °C. After being washed twice with cold PBS, cells were immediately analyzed by the flow cytometer at 488 nm excitation wavelength.

HSCs [5] = assay: Giemsa staining and DAPI staining, morphological changes; type: cell-based; settings: 1.5, 3.0, 6.0 µM, 72 h
Protocol: HSCs cells in logarithmic growth phase were cultured in 6-well plates at a density of 3 × 10^4 cells/mL for 24 h at 37 °C in a humidified atmosphere with 5% CO2. Then, each group was treated with 3g at various concentrations (0, 1.5, 3.0, and 6.0 µM) for 72 h. The cell culture medium was discarded. Additionally, the cells were washed twice with PBS, kept in PBS/ethanol (1:1) for 2 min, and fixated in ethanol for 10 min. After removing the ethanol, the cells were stained with giemsa staining for 2 min and observed under inverted phase-contrast microscope at a magnification of 400×.
HSCs cells in logarithmic growth phase were cultured in 6-well plates at a density of 3 × 10^4 cells/mL for 24 h at 37 °C in a humidified atmosphere with 5% CO2. Additionally, each group was treated with different concentrations of 3g (0, 1.5, 3.0, and 6.0 µM) for 72 h. Cell culture medium was discarded, and the cells were washed twice with PBS. The cells were fixed with 4% paraformaldehyde (pH 7.4) for 15 min and then washed twice with PBS. With an excitation wavelength of […], 4′,6-diamidino-2-phenylindole (DAPI) staining was then performed for 2 min, and nuclear fragments were observed using inverted phase-contrast microscope at a magnification of 400×.

HSCs [6] = assay: Intracellular free Ca2+ levels assay (Fluo-3AM, flow cytometry); type: cell-based; settings: 1.5, 3.0, 6.0 µM, 72 h
Protocol: HSCs cells in logarithmic growth phase were cultured in 6-well plates at a density of 3 × 10^4 cells/mL for 24 h at 37 °C in incubator with 5% CO2. After treatment with different concentrations of 3g (0, 1.5, 3.0, and 6.0 μM) for 72 h, cells were collected and washed twice with cold PBS, then resuspended in HBSS buffer with 10 μM Fluo-3AM and incubated for 30 min at 37 °C in the dark. Intracellular Ca^2+ levels were analyzed by the flow cytometer at 488 nm excitation wavelength.

IC50 (HepG2) [µM] | IC50 (Bel-7402) [µM] | Structure (SMILES) | IC50 (L02) [µM] | IC50 (HSCs [1]) [µM] | activity of ALT in serum [2] | activity of AST in serum [2] | percentage (Q2 + Q4) of apoptotic HSCs (HSCs [3]; 1.5 µM) [%] | percentage (Q2 + Q4) of apoptotic HSCs (HSCs [3]; 3.0 µM) [%] | percentage (Q2 + Q4) of apoptotic HSCs (HSCs [3]; 6.0 µM) [%] | change of Rh123 mean fluorescent intensity (MFI) with concentration (HSCs [4]) | apoptotic morphological changes of HSCs, Giemsa staining (HSCs [5]) | nuclear changes of HSCs, DAPI staining (HSCs [5]) | change of intracellular-free Ca2+ fluorescence with concentration (HSCs [6]) | liver morphological observation by HE staining [2]
> 25 | 11.8 ± 0.83 | CNCC(=O)OC1CCC2(C)C(CCC3(C)C2CC=C2C4CC(C)(C)CCC4(C(=O)O)CCC23C)C1(C)C (centres unmarked) [3i] | > 50 | 7.3 ± 1.58 |  |  |  |  |  |  |  |  |  | 
> 50 | > 50 | CC1(C)CC[C@]2(C(=O)O)CC[C@]3(C)C(=CC[C@@H]4[C@@]5(C)CC[C@H](O)C(C)(C)[C@@H]5CC[C@]43C)[C@@H]2C1 [OA, 3β-hydroxyolean-12-en-28-oic acid, reference compound] | > 50 | > 50 | reduced to some extent | reduced to some extent |  |  |  |  |  |  |  | 
12.2 ± 1.48 | > 25 | CC(N)C(=O)OC1CCC2(C)C(CCC3(C)C2CC=C2C4CC(C)(C)CCC4(C(=O)O)CCC23C)C1(C)C (centres unmarked) [3b] | > 50 | 9.92 ± 1.05 |  |  |  |  |  |  |  |  |  | 
11.1 ± 0.63 | 10.5 ± 1.49 | CC1(C)CCC2(C(=O)O)CCC3(C)C(=CCC4C5(C)CCC(OC(=O)C6CCCN6)C(C)(C)C5CCC43C)C2C1 (centres unmarked) [3c] | 10.1 ± 0.56 | 15.6 ± 2.31 |  |  |  |  |  |  |  |  |  | 
11.5 ± 0.94 | 8.5 ± 1.65 | CC1(C)CCC2(C(=O)O)CCC3(C)C(=CCC4C5(C)CCC(OC(=O)C(N)Cc6ccccc6)C(C)(C)C5CCC43C)C2C1 (centres unmarked) [3h] | > 50 | 14.8 ± 0.8 |  |  |  |  |  |  |  |  |  | 
18.6 ± 2.65 | > 25 | CC(C)C(N)C(=O)OC1CCC2(C)C(CCC3(C)C2CC=C2C4CC(C)(C)CCC4(C(=O)O)CCC23C)C1(C)C (centres unmarked) [3f] | 15.2 ± 1.2 | 19.6 ± 3.2 |  |  |  |  |  |  |  |  |  | 
3.67 ± 0.61 | 4.7 ± 0.75 | CC1(C)CCC2(C(=O)O)CCC3(C)C(=CCC4C5(C)CCC(OC(=O)C(N)CCCCN)C(C)(C)C5CCC43C)C2C1 (centres unmarked) [3g] | 12.3 ± 2.34 | 3.46 ± 1.16 | remarkably closer to control | remarkably closer to control | 29.4 | 50.5 | 76.5 | decreased with the administration of higher concentrations | evident nuclear fragmentation, chromatin condensation, and margination in a dose-dependent manner | nuclear condensation and fragmentation, as well as the formation of apoptotic bodies with irregular shape | increased dramatically | more pathological changes were relieved in balloon-like hepatocyte edema and interstitial inflammatory cell infiltration than in OA
23.9 ± 2.65 | > 25 | CC1(C)CCC2(C(=O)O)CCC3(C)C(=CCC4C5(C)CCC(OC(=O)C6CCC(=O)N6)C(C)(C)C5CCC43C)C2C1 (centres unmarked) [3j] | > 50 | > 25 |  |  |  |  |  |  |  |  |  | 
11.5 ± 0.95 | 12.1 ± 1.32 | CC1(C)CCC2(C(=O)O)CCC3(C)C(=CCC4C5(C)CCC(OC(=O)CN)C(C)(C)C5CCC43C)C2C1 (centres unmarked) [3a] | > 25 | 13.6 ± 1.12 |  |  |  |  |  |  |  |  |  | 
> 25 | > 25 | CC(C)CC(N)C(=O)OC1CCC2(C)C(CCC3(C)C2CC=C2C4CC(C)(C)CCC4(C(=O)O)CCC23C)C1(C)C (centres unmarked) [3d] | > 25 | > 25 |  |  |  |  |  |  |  |  |  | 
18 ± 1.78 | 18.7 ± 1.63 | CCC(C)C(N)C(=O)OC1CCC2(C)C(CCC3(C)C2CC=C2C4CC(C)(C)CCC4(C(=O)O)CCC23C)C1(C)C (centres unmarked) [3e] | > 25 | 24.5 ± 1.99 |  |  |  |  |  |  |  |  |  | 
